Results as given in patent publication US20240390468A1, “SURVIVIN AND MAGE-A9 DUAL-TARGETED IMMUNOTHERAPY” (IMMUNOVACCINE TECHNOLOGIES INC., priority 2022, published 2024).
“Also recorded” adds a separate entry of the source.

Key:
[1] = test system: spleen cells of HLA-A2/DR1 transgenic mice immunized with MAGE-A9 full length recombinant protein; experiment: IFN-γ ELISPOT, MAGE-A9 immunogenic HLA-A2 peptides; type: cell-based; details: for IFN-γ response (ELISPOT): HLA-A2/DR1 mice, three experiments
Description: FIGS. 11A and 11B depict IFN-γ ELISPOT results of 1st experiment for the MAGE-A9 immunogenic HLA-A2 peptides. Induction of IFN-γ response induced against HLA-A2 peptides of MAGE-A9 as detected by IFN-γ ELISPOT assay. A group of 10 mice was immunized with MAGE-A9 full length recombinant protein admixed with poly(I:C). Mice were sacrificed 34 days after 1st immunization and spleen cells were tested in IFN-γ ELISPOT after stimulation with dendritic cells loaded with the individual candidate or control peptides (FIG. 11A) or after direct stimulation with the individual candidate or control peptides (FIG. 11B). DCE: Dendritic cell empty; NS: Non stimulated; INF, gp100 and EBV: irrelevant HLA-A2 control peptides. Student T-test *p<0.05; ** p<0.005; *** p<0.0005; **** p<0.00005.
(§1) IFN-γ ELISPOTs was performed to measure antigen-specific T-cell activation upon stimulation with peptides containing the putative epitopes. […]
(§2) Groups of ten 6-12 weeks-old HLA-A1, HLA-A2/DR1, HLA-A24, HLA-All (as a surrogate for HLA-A3 allele) and HLA-B7 male/female mice were immunized three times s.c. and i.p., 14 days apart, with 30 μg of MAGE-A9 his-tag full-length recombinant protein admixed with 50 μg (s.c.) or 200 μg (i.p.) of Poly(I:C) in a final volume of 100 μl. On day 34, mice were sacrificed. Splenocytes were isolated from spleens and treated with ACK lysis buffer to lyse contaminating erythrocytes. Splenocytes were stimulated with the candidate peptides alone or with dendritic cells loaded with the candidate peptides. The immune response was measured using IFN-γ ELISPOT assays (BD). Then spots were counted using an ELISPOT counter (CTL Analyzer) and enumerated as number of spot-forming units (SFU) per well. Each experiment was repeated two or three times (except for the experiment with HLA-A11 (as a surrogate for HLA-A3 allele) mice which was done only once).
Student's t-tests were performed to compare two groups (non-stimulated versus stimulated with test peptide). To indicate significance, p-values are represented in the figures by * p<0.05, ** p<0.01, *** p<0.001, and **** p=0.0001. All data are presented as means with standard error of the mean (SEM).
The experiment was repeated three times for a total number of 30 mice (FIGS. 11, 12, and 13). The immune response for peptides 111, 24, 223 and 270 via Chromium 51 (^51Cr) release assays (CTL assays) is also presented in Example 6. […] These tests offer a very high sensitivity, which explains why the INF-Y response for these peptides appears to be weaker, although the peptides are responsive in other assays (see Examples 6).

[2] = test system: spleen cells of HLA-A1 transgenic mice immunized with MAGE-A9 full length recombinant protein; experiment: IFN-γ ELISPOT, MAGE-A9 immunogenic HLA-A1 peptides; type: cell-based
Description: FIGS. 14A and 14B depict IFN-γ ELISPOT results of 1st experiment for the MAGE-A9 immunogenic HLA-A1 peptides. IFN-γ response induced by HLA-A1 candidate peptides of MAGE-A9 as detected by IFN-γ ELISPOT assay. Two groups of 3 and 5 mice were immunized respectively with poly(I:C) alone (as control; bar on the left) and with MAGE-A9 full-length recombinant protein admixed with poly(I:C) (bar on the right). Mice were sacrificed 34 days after 1st immunization and spleen cells were tested in IFN-γ ELISPOT after stimulation with dendritic cells loaded with the individual candidate or control peptides (FIG. 14A) or after direct stimulation with the individual candidate or control peptides (FIG. 14B). DCE: Dendritic cell empty; NS: Non stimulated; Ctrl HLA-A1; irrelevant control HLA-A1 peptide. Student T-test *p<0.05; ** p<0.005; *** p<0.0005; **** p<0.00005. […]
Groups of ten 6-12 weeks-old HLA-A1, HLA-A2/DR1, HLA-A24, HLA-All (as a surrogate for HLA-A3 allele) and HLA-B7 male/female mice were immunized three times s.c. and i.p., 14 days apart, with 30 μg of MAGE-A9 his-tag full-length recombinant protein admixed with 50 μg (s.c.) or 200 μg (i.p.) of Poly(I:C) in a final volume of 100 μl. […] The immune response was measured using IFN-γ ELISPOT assays (BD). Then spots were counted using an ELISPOT counter (CTL Analyzer) and enumerated as number of spot-forming units (SFU) per well. […]

[3] = test system: spleen cells of HLA-A11 transgenic mice immunized with MAGE-A9 full length recombinant protein; experiment: IFN-γ ELISPOT, MAGE-A9 immunogenic HLA-A3/A11 peptides; type: cell-based
Excerpt: FIGS. 23A and 23B depict IFN-γ ELISPOT results of the experiment for the MAGE-A9 immunogenic HLA-A3/A11 peptides. IFN-γ response induced by HLA-A3 candidate peptides of MAGE-A9 as detected by IFN-γ ELISPOT assay. Two group of 3 and 10 HLA-A11 transgenic mice were immunized respectively with DPX-Empty alone (as control; bar on the left) and with MAGE-A9 full-length recombinant protein admixed with poly(I:C) (bar on the right). Mice were sacrificed 36 days after 1st immunization and spleen cells were tested in IFN-γ ELISPOT after stimulation with dendritic cells loaded with the individual candidate or control peptides (FIG. 23A) or after direct stimulation with the individual candidate or control peptides (FIG. 23B). DCE: Dendritic cell empty; NS: Non stimulated; A3-Ctrl; irrelevant control HLA-A3 peptide.
as §1, §2
(§3) Student's t-tests were performed to compare two groups (non-stimulated versus stimulated with test peptide). […]

[4] = test system: peptide-loaded RMA-S HHD cells; experiment: Chromium 51 release assay (CTL assay); type: cell-based, mice; details: for CTL response (51Cr-release): effector:target 75:1, 50:1, 25:1, mice immunized with recombinant MAGE-A9 and poly(I:C)
[5] = target: MHC class 1 allele A*02:01 (Homo sapiens, UniProt P04439, D140Y/D185E/D98H/E176V/E277Q/G131W/G231S/I119V/I121R/I166T/I218V/L300P/L318F/N151K/N90K/P208A/P217A/Q86G/Q94H/R138H/R169H/T345S); experiment: REVEAL binding of HLA-A2 binding peptides; details: for binding to MHC class 1 allele A*02:01 (in words): Higher REVEAL score
[6] = target: T1, HLA-A2 (Homo sapiens, UniProt P04439, D140Y/D185E/D98H/E176V/E277Q/G131W/G231S/I119V/I121R/I166T/I218V/L300P/N151K/N90K/P208A/P217A/Q86G/Q94H/R138H/R169H); experiment: Flex-T in vitro HLA binding assay (HLA class I ELISA); details: Flex-T monomer peptide exchange, β2-microglobulin ELISA
T1 construct: purchased Biolegend, USA
Description: Internal in vitro assay that assesses the binding of each of the peptides to HLA-A2 as a part of the potency assay development was performed using the Flex-T in vitro binding assay.
Flex-T technology (Biolegend, USA) offers the opportunity to quantitatively measure the binding affinity of peptides to their respective MHC Class I receptors (In this case HLA-A2). Flex-T was made of MHC monomers loaded with a peptide that can be degraded using a UV light source. This allowed for a peptide exchange when the UV irradiation was done in the presence of the peptide of interest which is not UV-labile.
The binding of the peptide of interest to the Flex-T monomer was quantified using an HLA class I ELISA method based on the detection of β2-microglobulin subunit of HLA class I complexes, after capturing the complex through the conjugated biotin. To this end, biotinylated HLA class I monomer-peptide complex was first captured in streptavidin coated microtiter wells. Subsequently, lRP-conjugated anti-human 02-microglobulin was added to detect intact HLA class I complexes. Only intact HLA class I complexes were recognized.
The relative potency was then calculated compared to a reference lot using parallel line analysis as per USP <1034>.

[7] = test system: spleen cells of HLA-A24 transgenic mice immunized with MAGE-A9 full length recombinant protein; experiment: IFN-γ ELISPOT, MAGE-A9 immunogenic HLA-A24 peptides; type: cell-based; details: three experiments
Description: FIGS. 16A and 16B depict IFN-γ ELISPOT results of 1st experiment for the MAGE-A9 immunogenic HLA-A24 peptides. IFN-γ response induced against HLA-A24 candidate peptides of MAGE-A9 as detected by IFN-γ ELISPOT assay. Two group of 3 and 5 mice were immunized respectively with poly(I:C) alone (as control; bar on the left) and with MAGE-A9 full-length recombinant protein admixed with poly(I:C) (bar on the right). Mice were sacrificed 34 days after 1st immunization and spleen cells were tested in IFN-γ ELISPOT after stimulation with dendritic cells loaded with the individual candidate or control peptides (FIG. 16A) or after direct stimulation with the individual candidate or control peptides (FIG. 16B). DCE: Dendritic cell empty; NS: Non stimulated; A24-Ctrl; irrelevant control HLA-A24 peptide. Student T-test *p<0.05; ** p<0.005; *** p<0.0005; **** p<0.00005.
as §1, §2, §3

## ALLIIVLGV [compound 199, MAGE-A9 peptide antigen]
[1]
  IFN-γ response (ELISPOT): highest

## EVDPAGHSY [peptide 167]
[2]; HLA-A1 mice, two experiments
  IFN-γ response (ELISPOT): very strong; also recorded: highly immunogenic

## FLLHKYRVK [peptide 118, MAGE-A9 peptide antigen]
[3]; only with peptide-loaded DC
  IFN-γ response (ELISPOT): good reactivity

## FLWGSKAHA [MAGE-A9 270, MAGE-A9 peptide antigen]
[4]
  CTL response (51Cr-release): elicited a response
[5]
  binding to MHC class 1 allele A*02:01 (in words): high binding

## FMFQEALKL [peptide 102, MAGE-A9 peptide antigen]
[1]
  IFN-γ response (ELISPOT): highest; also recorded: consistently observed
[1]; splenocytes stimulated with peptide-loaded DCs
  IFN-γ response (ELISPOT), significance: statistically significant in two out of three experiments

## GLMGAQEPT [MAGE-A9 24, MAGE-A9 peptide antigen]
[4]
  CTL response (51Cr-release): elicited a response

## IVLGVILTK [peptide 203, MAGE-A9 peptide antigen]
[3]; restimulated with peptide alone
  IFN-γ response (ELISPOT): weak but significant reactivity

## KVAELVHFL [MAGE-A9 111]
[6]
  HLA-A2 binding: high affinity binding
[4]
  specific lysis compared to M9-A2-270: higher specific lysis
  CTL response (51Cr-release): elicited a response
[5]
  binding affinity compared to M9-A2-270: lower binding affinity
  binding to MHC class 1 allele A*02:01 (in words): high binding
[2]; first experiment, peptide-loaded DC (FIG. 14A), not observed in the 2nd experiment
  IFN-γ response (ELISPOT): moderate response
[1]
  IFN-γ response (ELISPOT): consistently higher

## LMLGEFLKL [SurA2.M, survivin peptide antigen HLA-A2]
[6]
  HLA-A2 binding: high affinity binding
[5]
  binding to MHC class 1 allele A*02:01 (in words): high binding

## NYKRYFPVI [peptide 141]
[7]
  IFN-γ response (ELISPOT): interesting; also recorded: highest responder; also recorded: good immune responses; also recorded: stronger and more consistent results

## STFKNWPFL [SurA24, survivin peptide antigen HLA-A24]
[5]
  binding to MHC class 1 allele A*02:01 (in words): high binding
[5]; MHC class 1 allele A*02:01
  Kinetic score: 0.00
  On-rate T1/2: 31.52 h
  R-score: 0.00
[5]; MHC class 1 allele A*02:01, * = no significant, stable complex at end of measurement period
  Off-rate T1/2: 7.2 min
[5]; MHC class 1 allele A*02:01, Positive Control 100
  REVEAL score: 61.93

## SVMGVYVGK [peptide 225, MAGE-A9 peptide antigen]
[3]; HLA-A11 mice, peptide-loaded DC or peptides alone
  IFN-γ response (ELISPOT): very strong; also recorded: very immunogenic

## SYILVTALG [compound 174]
[7]
  IFN-γ response (ELISPOT): interesting; also recorded: good immune responses

## VYYTLWSQF [compound 71]
[7]
  IFN-γ response (ELISPOT): interesting
